The source of these data is the NIST ThermoML archive (doi:10.1021/acs.jced.7b00964).

For this data set the following is noted: Liquid, Closed cell (Static) method.

± gives the expanded uncertainty stated by the source.

On to `CC(C)C` [2-methylpropane], for which the vapor or sublimation pressure (in general, the pressure of vapour in equilibrium with the condensed phase) is, setting by setting: (243.15 K) 46.7 ± 1 kPa; (253.15 K) 72.6 ± 1 kPa; (263.15 K) 108.7 ± 1 kPa; (273.15 K) 157.4 ± 1 kPa; (283.15 K) 221 ± 1.1 kPa.
Regarding `F/C=C/C(F)(F)F` [trans-1,3,3,3-tetrafluoropropene], the “vapor or sublimation pressure” value is, setting by setting: (243.15 K) 61 ± 1 kPa; (253.15 K) 97 ± 1 kPa; (263.15 K) 147.7 ± 1 kPa; (273.15 K) 216.4 ± 1.1 kPa; (283.15 K) 308.3 ± 1.1 kPa.
With `FC(F)(F)I` [trifluoroiodomethane], the “vapor or sublimation pressure” value amounted to 71.7 ± 1 kPa (243.15 K); 109 ± 1 kPa (253.15 K); 160.4 ± 1 kPa (263.15 K); 228.2 ± 1.1 kPa (273.15 K); 316.3 ± 1.1 kPa (283.15 K).
